Data published in patent publication US7575882B2, “Compositions and methods for identifying modulators of TRPV2” (Janssen Pharmaceutica N. V., priority 2005, dated 2009).

Assays:
[1] = molecular target: T1, co-expressed TRPV2 chimeras RRH and HRR (Rattus norvegicus, UniProt Q9WUD2); test: Calcium mobilization in HEK293 cells co-expressing TRPV2 chimeras RRH and HRR; assay type: cell-based, rat/human; conditions: co-expression in HEK cells
T1 construct: expressed in transfected cells; host or cells: HEK293, transient co-expression, pCI-neo
T1 sequence (Q9WUD2 with tags, fused parts or gaps H651S/D654T/N655D/DEL680-680/H683Q/E685A/R687V/L688M/K690T/R694K/G695P/T698S/A714S/K717Q/S723C): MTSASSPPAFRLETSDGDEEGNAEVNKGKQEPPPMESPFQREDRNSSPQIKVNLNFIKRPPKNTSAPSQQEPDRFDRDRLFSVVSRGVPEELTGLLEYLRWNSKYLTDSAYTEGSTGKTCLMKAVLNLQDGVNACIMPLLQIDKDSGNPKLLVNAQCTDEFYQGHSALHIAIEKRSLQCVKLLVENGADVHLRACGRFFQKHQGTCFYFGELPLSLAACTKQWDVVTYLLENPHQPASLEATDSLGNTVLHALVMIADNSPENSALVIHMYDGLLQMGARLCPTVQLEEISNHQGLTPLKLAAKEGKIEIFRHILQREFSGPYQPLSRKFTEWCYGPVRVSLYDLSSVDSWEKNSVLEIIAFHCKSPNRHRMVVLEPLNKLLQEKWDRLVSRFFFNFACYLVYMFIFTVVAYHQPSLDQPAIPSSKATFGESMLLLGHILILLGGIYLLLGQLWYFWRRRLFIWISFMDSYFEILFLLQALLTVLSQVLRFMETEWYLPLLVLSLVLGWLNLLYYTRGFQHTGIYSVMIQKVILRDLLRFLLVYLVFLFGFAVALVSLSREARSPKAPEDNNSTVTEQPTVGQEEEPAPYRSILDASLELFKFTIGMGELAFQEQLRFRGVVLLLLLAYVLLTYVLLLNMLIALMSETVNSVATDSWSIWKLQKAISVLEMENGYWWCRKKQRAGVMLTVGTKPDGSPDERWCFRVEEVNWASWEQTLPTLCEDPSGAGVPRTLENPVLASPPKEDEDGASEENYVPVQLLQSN
T1 sequence (Q9WUD2 with tags, fused parts or gaps P38Q/R41G/N45K/S46F/S47A/K51R/DEL56-59/P60Y/P61R/N63G/S65G/DEL67-67/Q70P/E71D/D73N/S82N/V83A/E91D/T93A/L96P/R100S/W101K/N102T/A110E/Q129K/M137L/K144R/K150Q/L151P/E160D/F161Y/Q163R/D189N/L192A/H202G/T227S/E240Q/L245Q/A257S/P261A/S264I/I268T/H269S/M277A/E289D/S291R/H293L/G295D/DEL322-322/Y323L/Q324S/P325H/S346A/W351C/K353E/N368H/E384A/R388L/V390I/S391P/R392K): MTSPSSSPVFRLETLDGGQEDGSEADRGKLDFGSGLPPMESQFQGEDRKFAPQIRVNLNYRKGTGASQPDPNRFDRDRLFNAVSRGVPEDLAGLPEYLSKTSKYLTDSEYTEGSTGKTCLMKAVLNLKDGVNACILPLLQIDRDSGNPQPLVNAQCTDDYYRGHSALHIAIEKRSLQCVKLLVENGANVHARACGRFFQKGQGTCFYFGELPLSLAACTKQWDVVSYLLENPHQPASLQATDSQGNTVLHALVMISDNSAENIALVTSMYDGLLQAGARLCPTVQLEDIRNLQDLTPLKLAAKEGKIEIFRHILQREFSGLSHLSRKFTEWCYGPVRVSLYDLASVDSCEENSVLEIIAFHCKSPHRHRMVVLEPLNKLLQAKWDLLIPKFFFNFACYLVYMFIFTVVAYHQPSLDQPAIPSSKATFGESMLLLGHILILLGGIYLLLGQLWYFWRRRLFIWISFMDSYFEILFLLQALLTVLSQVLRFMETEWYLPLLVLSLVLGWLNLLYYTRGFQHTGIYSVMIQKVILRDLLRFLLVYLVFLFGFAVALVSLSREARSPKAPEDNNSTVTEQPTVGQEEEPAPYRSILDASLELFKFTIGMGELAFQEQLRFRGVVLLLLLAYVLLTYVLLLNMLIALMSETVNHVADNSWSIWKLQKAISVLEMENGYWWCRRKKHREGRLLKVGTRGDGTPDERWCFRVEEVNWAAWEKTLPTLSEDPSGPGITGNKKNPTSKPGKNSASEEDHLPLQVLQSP
Description: The deletion mutant constructs were then transfected into HEK293 cells using Fugene 6 reagent (Roche) as per the manufacturer's instructions. At 24 hours post-transfection, the cells were harvested and replated in fresh DMEM medium supplemented with 10% fetal bovine serum, 100 units/ml penicillin, and 100 μg/ml streptomycin. The cells were distributed onto poly-D-Lysine coated 96-or 384-well plates at a density of approximately 40,000 and 10,000 cells per well, respectively. At approximately 48 hours post-transfection, the medium was removed from the assay plate and replaced with Calcium 3 Dye Buffer (Molecular Devices) using the protocol available from the manufacturer. Calcium mobilization was triggered using Δ^9-THC or 2-APB or elevated temperature buffer and measured using either FLIPR or FLEX STATION instruments.
Based on the predicted topology and primary sequence features of TRPV2, TRPV2 are divided into 3 major domains: 1) the amino-terminal intracellular domain; 2) the transmembrane domain; and 3) the carboxyl-terminal intracellular domain. For a chimera, each domain can be of rat (R) or human (H) origin. Three rat and human TRPV2 chimera were constructed and tested herein. RRH (SEQ ID NO:15) was a chimera comprising rat 1-392 aa, rat 393-646 aa, and human 647-764 aa. RHR (SEQ ID NO:16) was a chimera comprising rat 1-392, human 391-646, and rat 647-761. […]

[2] = test system: untransfected HEK293 cells; test: Whole-cell patch clamp, untransfected HEK293 cells (control); assay type: cell-based; conditions: 100 μM; data not shown
Description: To further confirm the Δ^9-THC effect on TRPV2, whole-cell patch clamp studies were performed. The extracellular solution contained (in mM): NaCl, 132; CaCl, 1.8; KCl, 5.4; MgCl2, 0.8; HEPES, 10; glucose, 10; pH=7.4. The intracellular solution used to fill recording pipettes contained (in mM): CsCl, 145; EGTA, 5; HEPES, 10; glucose, 5; pH=7.4. Recordings were performed using the conventional whole-cell patch clamp technique, 2-3 days after transient transfection of human TRPV2 into HEK293 cell or 1-2 days after plating HEK293 cells stably expressing rat TRPV2 onto glass coverslips. Currents were amplified by a patch clamp amplifier and filtered at 2 kHz (Axopatch 200B), sampled at 10 kHz using Digidata 1322A and acquired and analyzed with pClamp 9.0 (all instruments from Molecular Devices, CA). A 600 ms voltage ramp was given once every five seconds from −100 mV to +60 mV. The holding potential between voltage ramps was −100 mV. Extracellular solutions were applied to the cell at 0.5 ml/min via a gravity-fed perfusion system. All experiments were performed at 22° C.

Substance: Delta-9-tetrahydrocannabinol [Δ^9-THC]
- response of cells co-expressing both chimeras to the compound [1]: fully responsive
- current above control level in untransfected HEK293 cells [2]: no current above control level
